According to ChEMBL document CHEMBL1201862, “PubChem BioAssay data set” (2004):
Calls of active or inactive are those of the source.

Assays:
Prothrombin = Prothrombin (Bos taurus, UniProt P00735); test: thrombin protease inhibitors – biochemical, fluorescence polarization, uHTS hits, dose response (AID 602369); format: functional
[1] = molecular target: T1, Multidrug resistance protein CDR2 (Candida albicans (strain SC5314 / ATCC MYA-2876) (Yeast), UniProt P78595); test: inhibition of Nile Red efflux via Candida CDR2 – S. cerevisiae AD1-8u, singleplex, Cherry Pick1 hits, dose response (AID 588604); format: functional
T1 sequence (P78595 whole entry): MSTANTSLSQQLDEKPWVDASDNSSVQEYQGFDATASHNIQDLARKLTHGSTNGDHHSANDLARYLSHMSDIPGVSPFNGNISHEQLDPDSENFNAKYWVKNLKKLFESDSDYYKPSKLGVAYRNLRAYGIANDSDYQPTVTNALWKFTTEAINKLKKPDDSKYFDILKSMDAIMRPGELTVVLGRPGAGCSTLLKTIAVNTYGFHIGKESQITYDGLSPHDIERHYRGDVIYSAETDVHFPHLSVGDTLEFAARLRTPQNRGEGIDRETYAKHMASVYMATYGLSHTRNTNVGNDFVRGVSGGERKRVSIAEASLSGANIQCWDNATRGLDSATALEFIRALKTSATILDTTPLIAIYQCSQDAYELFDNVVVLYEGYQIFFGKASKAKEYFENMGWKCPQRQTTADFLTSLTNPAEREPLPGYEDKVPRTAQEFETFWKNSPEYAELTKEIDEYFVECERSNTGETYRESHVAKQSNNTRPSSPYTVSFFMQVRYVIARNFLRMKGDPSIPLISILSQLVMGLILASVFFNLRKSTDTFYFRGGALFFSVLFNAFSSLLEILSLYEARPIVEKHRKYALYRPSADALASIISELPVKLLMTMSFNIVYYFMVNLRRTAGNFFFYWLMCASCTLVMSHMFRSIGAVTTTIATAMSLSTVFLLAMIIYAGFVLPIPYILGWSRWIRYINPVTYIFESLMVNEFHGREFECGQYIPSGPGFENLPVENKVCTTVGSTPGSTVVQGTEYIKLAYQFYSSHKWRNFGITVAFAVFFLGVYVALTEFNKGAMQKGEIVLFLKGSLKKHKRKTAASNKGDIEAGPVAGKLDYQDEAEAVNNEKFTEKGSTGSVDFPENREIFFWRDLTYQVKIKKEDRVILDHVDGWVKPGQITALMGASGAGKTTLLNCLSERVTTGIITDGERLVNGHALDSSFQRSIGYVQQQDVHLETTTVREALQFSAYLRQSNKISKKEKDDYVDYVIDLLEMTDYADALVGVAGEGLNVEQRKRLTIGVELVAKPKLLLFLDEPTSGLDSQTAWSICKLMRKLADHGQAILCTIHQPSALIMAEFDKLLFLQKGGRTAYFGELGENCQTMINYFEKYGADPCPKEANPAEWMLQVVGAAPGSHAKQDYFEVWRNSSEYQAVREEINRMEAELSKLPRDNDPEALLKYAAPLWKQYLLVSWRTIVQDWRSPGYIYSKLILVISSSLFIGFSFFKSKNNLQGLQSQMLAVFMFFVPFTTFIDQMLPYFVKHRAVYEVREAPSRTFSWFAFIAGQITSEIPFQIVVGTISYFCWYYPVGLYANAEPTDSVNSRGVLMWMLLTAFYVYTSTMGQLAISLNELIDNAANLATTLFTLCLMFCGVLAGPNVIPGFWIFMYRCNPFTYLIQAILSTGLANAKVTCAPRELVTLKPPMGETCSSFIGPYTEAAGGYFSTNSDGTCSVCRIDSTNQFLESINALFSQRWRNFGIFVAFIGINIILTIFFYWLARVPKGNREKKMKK

[2] = molecular target: T2, Rac GTPase-activating protein 1 (Homo sapiens, UniProt Q9H0H5); test: blockers of MgcRacGAP-driven Rac1 GTP hydrolysis – biochemical, ADP Hunter fluorescence, primary and confirmatory, confirmation (AID 624330); format: functional
T2 sequence (Q9H0H5 whole entry): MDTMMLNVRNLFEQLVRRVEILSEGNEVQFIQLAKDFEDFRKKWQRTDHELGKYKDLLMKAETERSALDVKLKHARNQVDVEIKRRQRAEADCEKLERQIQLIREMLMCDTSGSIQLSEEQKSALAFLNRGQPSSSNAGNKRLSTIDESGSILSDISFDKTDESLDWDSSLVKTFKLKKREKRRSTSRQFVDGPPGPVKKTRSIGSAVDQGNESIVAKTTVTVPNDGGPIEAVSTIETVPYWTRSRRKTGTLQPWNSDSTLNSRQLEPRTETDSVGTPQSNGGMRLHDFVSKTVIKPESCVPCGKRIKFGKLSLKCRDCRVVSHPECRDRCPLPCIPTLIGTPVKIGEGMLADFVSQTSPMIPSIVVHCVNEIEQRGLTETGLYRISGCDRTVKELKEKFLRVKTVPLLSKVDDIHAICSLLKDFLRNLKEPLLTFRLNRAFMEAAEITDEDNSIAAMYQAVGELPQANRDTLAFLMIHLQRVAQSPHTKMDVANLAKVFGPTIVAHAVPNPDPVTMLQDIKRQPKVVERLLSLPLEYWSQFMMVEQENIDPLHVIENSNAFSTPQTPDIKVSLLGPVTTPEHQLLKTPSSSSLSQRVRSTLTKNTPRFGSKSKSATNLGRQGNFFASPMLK

[3] = molecular target: DNA (cytosine-5)-methyltransferase 1 (Homo sapiens, UniProt P26358); test: inhibition of DNA methylation by DNMT1 – biochemical, fluorescent molecular beacon, confirmation (AID 602386); format: functional
Chain of DNA (cytosine-5)-methyltransferase 1 (P26358 whole entry): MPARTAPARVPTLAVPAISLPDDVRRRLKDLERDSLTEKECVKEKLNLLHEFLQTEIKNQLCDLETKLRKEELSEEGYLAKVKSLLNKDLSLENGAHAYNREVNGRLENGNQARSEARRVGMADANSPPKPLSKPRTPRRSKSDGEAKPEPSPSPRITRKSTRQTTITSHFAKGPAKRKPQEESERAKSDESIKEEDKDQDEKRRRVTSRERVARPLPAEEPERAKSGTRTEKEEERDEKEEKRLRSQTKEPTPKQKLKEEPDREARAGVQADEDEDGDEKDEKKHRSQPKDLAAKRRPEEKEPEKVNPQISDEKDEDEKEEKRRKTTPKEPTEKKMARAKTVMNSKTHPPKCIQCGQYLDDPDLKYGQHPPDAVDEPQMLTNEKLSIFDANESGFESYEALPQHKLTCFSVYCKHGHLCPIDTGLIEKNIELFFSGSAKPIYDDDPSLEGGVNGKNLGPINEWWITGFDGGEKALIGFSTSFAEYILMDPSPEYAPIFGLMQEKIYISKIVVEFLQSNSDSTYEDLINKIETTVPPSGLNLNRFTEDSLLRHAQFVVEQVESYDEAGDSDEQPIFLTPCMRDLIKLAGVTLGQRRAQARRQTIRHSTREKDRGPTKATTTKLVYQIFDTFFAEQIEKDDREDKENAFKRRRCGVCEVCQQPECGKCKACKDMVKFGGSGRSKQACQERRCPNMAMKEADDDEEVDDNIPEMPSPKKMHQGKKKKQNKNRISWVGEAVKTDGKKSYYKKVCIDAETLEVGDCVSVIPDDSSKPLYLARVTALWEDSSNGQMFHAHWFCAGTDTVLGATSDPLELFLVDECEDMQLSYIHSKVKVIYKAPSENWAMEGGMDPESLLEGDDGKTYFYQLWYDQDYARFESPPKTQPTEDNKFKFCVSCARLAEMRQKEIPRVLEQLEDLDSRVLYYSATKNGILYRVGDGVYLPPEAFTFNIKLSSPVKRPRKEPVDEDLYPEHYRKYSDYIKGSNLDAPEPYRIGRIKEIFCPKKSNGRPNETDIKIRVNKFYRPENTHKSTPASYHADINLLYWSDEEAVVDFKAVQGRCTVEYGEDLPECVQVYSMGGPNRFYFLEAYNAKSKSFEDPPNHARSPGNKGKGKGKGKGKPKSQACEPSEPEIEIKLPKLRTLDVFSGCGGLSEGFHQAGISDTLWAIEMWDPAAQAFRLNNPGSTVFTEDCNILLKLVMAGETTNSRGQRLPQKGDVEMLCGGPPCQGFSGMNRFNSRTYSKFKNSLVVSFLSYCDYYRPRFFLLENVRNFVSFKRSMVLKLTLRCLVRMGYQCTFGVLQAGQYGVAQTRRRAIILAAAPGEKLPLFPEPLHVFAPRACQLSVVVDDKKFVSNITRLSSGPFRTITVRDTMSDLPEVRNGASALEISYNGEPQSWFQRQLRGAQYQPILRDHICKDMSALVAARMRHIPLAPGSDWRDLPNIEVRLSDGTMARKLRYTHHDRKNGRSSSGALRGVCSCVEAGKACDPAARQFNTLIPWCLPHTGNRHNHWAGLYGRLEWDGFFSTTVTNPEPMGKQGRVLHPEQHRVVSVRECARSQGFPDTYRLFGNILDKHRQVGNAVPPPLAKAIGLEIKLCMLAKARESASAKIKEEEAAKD

[4] = molecular target: Multidrug resistance protein CDR1 (Candida albicans, UniProt P43071); test: inhibition of Nile Red efflux via Candida CDR1 – S. cerevisiae AD1-8u, singleplex, Cherry Pick1 hits, dose response (AID 588606); format: functional
Chain of Multidrug resistance protein CDR1 (P43071 whole entry, looked up): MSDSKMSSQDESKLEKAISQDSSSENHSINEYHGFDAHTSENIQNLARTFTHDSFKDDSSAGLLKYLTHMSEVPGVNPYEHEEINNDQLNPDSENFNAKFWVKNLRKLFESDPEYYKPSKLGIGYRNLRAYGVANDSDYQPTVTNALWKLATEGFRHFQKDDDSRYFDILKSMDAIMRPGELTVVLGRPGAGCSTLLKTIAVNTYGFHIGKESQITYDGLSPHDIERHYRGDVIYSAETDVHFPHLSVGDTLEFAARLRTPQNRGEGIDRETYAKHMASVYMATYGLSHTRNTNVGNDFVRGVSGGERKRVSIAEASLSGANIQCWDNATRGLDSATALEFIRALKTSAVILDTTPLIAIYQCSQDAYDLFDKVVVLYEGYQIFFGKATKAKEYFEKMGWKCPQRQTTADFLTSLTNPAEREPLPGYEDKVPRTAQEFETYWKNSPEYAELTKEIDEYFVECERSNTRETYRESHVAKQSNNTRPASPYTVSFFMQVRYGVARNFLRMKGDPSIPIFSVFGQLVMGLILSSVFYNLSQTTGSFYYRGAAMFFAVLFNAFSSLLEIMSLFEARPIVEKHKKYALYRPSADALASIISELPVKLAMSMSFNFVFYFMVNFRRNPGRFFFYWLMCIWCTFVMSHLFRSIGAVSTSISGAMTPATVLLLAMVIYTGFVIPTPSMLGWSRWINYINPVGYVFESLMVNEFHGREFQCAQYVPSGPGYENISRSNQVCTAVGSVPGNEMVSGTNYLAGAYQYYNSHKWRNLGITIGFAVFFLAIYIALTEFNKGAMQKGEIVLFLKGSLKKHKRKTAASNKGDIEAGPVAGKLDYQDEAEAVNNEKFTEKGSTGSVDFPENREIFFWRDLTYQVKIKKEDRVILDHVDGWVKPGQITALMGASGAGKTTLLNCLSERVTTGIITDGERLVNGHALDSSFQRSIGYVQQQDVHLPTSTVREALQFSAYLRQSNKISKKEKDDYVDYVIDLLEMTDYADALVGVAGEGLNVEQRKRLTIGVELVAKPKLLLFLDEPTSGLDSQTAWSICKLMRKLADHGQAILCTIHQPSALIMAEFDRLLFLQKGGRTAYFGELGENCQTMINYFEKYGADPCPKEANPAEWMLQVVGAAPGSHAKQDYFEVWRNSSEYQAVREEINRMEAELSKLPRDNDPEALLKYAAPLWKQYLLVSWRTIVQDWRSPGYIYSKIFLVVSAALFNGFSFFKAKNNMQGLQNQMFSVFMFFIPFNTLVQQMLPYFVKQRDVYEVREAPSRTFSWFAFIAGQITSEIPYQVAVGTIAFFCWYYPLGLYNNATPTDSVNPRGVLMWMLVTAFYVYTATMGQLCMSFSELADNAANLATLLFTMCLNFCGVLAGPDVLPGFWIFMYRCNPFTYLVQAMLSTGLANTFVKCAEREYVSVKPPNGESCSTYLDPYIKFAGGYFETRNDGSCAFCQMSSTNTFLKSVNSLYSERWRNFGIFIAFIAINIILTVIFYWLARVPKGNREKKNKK

Genome polyprotein = Genome polyprotein (dengue virus type 2, UniProt P29990); test: flavivirus cap methylation enzyme inhibition – biochemical, confirmation dose response, primary screen (AID 588689); format: functional
[5] = molecular target: 72 kDa type IV collagenase (Homo sapiens, UniProt P08253); test: Dose Response validation of uHTS RPN11 inhibitor hits using a MMP-2 Fluorescence assay.; format: functional
Chain of 72 kDa type IV collagenase (P08253 whole entry): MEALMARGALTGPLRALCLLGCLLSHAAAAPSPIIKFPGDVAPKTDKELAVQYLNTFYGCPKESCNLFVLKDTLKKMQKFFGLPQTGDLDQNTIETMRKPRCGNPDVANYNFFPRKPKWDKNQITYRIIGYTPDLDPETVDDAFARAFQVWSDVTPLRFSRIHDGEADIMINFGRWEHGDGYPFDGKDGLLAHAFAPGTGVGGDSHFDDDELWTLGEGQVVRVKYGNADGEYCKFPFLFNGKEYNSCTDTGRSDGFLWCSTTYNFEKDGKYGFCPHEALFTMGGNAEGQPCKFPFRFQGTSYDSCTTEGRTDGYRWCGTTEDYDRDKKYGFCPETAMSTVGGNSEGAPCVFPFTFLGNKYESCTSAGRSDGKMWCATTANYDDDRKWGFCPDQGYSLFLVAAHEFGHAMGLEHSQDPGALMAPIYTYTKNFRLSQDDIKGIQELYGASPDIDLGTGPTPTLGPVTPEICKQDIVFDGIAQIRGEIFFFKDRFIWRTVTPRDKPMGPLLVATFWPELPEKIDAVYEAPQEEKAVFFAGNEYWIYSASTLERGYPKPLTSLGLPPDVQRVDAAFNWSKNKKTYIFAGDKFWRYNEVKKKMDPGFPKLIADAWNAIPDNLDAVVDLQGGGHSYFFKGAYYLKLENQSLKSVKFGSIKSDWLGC

[6] = molecular target: T3, Zinc finger protein mex-5 (Caenorhabditis elegans, UniProt Q9XUB2); test: potency of MEX-5 RNA-binding blockers – biochemical, C. elegans, fluorescence polarization, dose response (AID 1960)
T3 sequence (Q9XUB2 whole entry): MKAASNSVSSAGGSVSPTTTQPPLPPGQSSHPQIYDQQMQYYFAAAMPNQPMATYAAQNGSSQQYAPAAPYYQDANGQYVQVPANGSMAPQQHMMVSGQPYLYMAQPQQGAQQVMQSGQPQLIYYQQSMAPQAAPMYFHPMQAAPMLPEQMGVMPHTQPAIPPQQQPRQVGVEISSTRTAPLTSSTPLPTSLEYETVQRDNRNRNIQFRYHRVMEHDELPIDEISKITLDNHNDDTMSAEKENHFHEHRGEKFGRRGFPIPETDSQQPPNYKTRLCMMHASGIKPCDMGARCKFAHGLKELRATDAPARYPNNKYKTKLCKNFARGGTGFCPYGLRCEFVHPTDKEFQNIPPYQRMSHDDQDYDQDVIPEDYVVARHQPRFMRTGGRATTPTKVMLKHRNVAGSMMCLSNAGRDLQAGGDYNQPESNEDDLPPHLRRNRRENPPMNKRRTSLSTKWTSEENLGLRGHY

[7] = molecular target: 26S proteasome non-ATPase regulatory subunit 14 (Homo sapiens, UniProt O00487); test: inhibition of proteasome subunit RPN11 – biochemical, fluorescence polarization, uHTS hits, confirmation (AID 602368); format: functional
Chain of 26S proteasome non-ATPase regulatory subunit 14 (O00487 whole entry): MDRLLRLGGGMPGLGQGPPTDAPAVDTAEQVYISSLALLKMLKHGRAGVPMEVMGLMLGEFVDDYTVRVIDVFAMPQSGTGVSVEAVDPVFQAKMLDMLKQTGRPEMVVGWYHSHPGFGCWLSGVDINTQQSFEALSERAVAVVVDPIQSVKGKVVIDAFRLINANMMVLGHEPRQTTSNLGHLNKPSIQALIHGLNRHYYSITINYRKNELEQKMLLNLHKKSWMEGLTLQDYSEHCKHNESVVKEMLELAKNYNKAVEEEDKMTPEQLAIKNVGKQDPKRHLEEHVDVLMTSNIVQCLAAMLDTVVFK

[8] = molecular target: Benomyl/methotrexate resistance protein (Candida albicans, UniProt P28873); test: Candida albicans Mdr1 pump inhibition curves – singleplex, Cherry Pick1 hits, dose response (AID 588608); format: functional
Chain of Benomyl/methotrexate resistance protein (P28873 whole entry, the tested form may be a part): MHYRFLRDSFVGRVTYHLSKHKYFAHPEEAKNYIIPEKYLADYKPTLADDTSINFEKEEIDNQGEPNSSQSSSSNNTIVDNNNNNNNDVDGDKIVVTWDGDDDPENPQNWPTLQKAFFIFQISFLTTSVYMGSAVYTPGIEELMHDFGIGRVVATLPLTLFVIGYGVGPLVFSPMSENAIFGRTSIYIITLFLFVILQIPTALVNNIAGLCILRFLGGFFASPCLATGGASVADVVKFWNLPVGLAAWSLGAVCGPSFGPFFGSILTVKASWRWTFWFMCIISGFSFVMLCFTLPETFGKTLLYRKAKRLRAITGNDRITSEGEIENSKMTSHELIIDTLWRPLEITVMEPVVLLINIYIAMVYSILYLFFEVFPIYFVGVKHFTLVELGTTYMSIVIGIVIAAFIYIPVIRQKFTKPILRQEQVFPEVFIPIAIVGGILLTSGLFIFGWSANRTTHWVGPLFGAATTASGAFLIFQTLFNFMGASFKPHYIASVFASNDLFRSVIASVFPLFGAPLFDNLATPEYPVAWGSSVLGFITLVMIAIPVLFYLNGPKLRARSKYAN

[9] = molecular target: T4, RNA-binding protein pos-1 (Caenorhabditis elegans, UniProt G5EF15); test: disruptors of C. elegans POS-1 RNA interaction – biochemical, fluorescence polarization, dose response (AID 1964);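 note: purified POS-1 fused to maltose binding protein made in E. coli; potency of compounds blocking POS-1 binding to fluorescent RNA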
T4 sequence (G5EF15 whole entry): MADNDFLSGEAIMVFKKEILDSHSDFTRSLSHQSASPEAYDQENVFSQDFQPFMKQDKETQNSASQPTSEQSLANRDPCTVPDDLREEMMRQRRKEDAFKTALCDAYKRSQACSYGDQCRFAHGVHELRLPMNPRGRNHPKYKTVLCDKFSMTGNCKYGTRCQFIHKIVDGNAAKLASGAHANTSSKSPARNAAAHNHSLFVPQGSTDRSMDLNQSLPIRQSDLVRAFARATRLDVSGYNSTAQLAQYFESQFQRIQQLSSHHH

[10] = molecular target: T5, High affinity choline transporter 1 (Homo sapiens, UniProt Q9GZV3); test: human choline transporter blockers, potency – cell-based, 10-point CRC, membrane potential dye, dose response (AID 588401); format: functional;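 note: membrane potential dye fluorescence of choline-evoked depolarization via CHT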
T5 sequence (Q9GZV3 whole entry): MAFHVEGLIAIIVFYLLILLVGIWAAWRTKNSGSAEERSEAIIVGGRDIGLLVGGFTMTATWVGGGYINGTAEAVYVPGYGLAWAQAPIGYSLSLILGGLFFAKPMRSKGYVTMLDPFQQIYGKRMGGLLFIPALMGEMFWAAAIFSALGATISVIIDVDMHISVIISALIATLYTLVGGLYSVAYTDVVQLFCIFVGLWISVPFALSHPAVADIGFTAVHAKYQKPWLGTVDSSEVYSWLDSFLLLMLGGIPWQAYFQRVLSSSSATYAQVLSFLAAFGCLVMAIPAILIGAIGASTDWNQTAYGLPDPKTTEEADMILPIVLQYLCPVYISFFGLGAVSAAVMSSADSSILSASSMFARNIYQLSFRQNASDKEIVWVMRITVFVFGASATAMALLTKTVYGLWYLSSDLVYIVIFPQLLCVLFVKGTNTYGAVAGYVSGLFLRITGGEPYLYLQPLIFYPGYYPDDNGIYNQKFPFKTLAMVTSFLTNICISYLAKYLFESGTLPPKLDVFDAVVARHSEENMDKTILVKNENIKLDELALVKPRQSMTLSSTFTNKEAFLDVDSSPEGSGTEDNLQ

[11] = molecular target: T5, High affinity choline transporter 1; test: human choline transporter blockers, potency – cell-based, 5-point CRC, membrane potential dye, dose response (AID 504840); format: functional
[12] = molecular target: T6, Apoptotic protease-activating factor 1 (Homo sapiens, UniProt O14727); test: SAR analysis of small molecule Activators of Apaf-1 in a Fluorescent assay.; format: functional; details: read-out: EC50_Mean;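 note: caspase-3 cleavage of fluorogenic Rh110 DEVD substrate downstream of apoptosome activation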
T6 sequence (O14727 whole entry): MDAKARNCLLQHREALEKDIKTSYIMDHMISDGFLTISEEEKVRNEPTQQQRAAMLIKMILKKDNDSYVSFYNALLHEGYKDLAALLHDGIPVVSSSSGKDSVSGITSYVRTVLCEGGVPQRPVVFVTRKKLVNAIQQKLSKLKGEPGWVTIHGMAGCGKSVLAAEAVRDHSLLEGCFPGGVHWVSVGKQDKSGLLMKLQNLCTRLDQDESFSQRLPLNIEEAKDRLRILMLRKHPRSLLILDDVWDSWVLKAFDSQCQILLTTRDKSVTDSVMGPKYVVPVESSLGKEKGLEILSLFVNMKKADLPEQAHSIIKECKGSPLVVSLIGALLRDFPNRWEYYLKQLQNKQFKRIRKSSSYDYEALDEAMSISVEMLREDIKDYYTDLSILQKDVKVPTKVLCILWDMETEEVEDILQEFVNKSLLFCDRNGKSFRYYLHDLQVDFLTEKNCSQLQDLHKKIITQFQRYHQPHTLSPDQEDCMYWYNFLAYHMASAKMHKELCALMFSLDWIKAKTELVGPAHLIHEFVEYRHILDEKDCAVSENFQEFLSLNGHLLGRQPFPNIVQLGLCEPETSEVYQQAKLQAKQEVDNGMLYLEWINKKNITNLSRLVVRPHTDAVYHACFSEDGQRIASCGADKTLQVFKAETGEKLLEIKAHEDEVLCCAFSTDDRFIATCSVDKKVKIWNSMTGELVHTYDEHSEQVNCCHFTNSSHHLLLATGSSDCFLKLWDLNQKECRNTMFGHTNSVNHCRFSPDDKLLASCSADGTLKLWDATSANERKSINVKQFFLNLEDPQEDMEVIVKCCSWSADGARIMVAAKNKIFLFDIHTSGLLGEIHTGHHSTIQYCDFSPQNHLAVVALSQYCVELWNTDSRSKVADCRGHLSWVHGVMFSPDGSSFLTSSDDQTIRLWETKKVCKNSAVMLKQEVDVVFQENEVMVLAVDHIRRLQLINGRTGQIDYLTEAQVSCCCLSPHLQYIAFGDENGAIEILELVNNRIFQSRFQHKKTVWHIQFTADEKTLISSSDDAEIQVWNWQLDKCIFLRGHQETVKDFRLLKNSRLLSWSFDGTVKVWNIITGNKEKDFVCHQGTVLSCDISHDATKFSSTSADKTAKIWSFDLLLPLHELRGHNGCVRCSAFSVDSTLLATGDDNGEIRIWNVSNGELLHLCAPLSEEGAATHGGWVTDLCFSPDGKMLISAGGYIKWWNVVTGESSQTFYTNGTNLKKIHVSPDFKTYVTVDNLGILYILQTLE

O=C(O)CCN1C(=O)/C(=C/c2ccc(-c3nc4ccccc4s3)o2)SC1=S
IC50 (Prothrombin): 5.11 µM (active) | EC50 [1]: 12.1 µM (active) | IC50 [2]: 30.6 µM (active) | IC50 [3]: 4.66 µM (active) | EC50 [4]: 11.2 µM (active) | IC50 (Genome polyprotein): > 100 µM (active) | IC50 [5]: > 100 µM (inactive) | EC50 [6]: 21.8 µM (active) | IC50 [7]: 2.93 µM (active) | EC50 [8]: 0.102 µM (active) | EC50 [9]: 32.3 µM (active)

CCc1cc(C(=O)Cc2ccc(F)cc2)c(O)cc1O
IC50 [10]: 4.47 µM (active) | IC50 [11]: 8.38 µM (active)

COc1ccc(C(=O)NCc2cnn(C)c2C)cc1OC1CCN(C(C)C)CC1
IC50 [10]: 2.38 µM (active) | IC50 [11]: 4.47 µM (active)

COc1ccc(Cl)cc1NC(=O)CCS(=O)(=O)c1cc2c(cc1Br)CCN2C(C)=O
EC50 [12]: > 100 µM (inactive)
